According to ChEMBL document CHEMBL3885861, “Open TG-GATES”:

Organism: Rattus norvegicus
Assay: Open TG-GATES - Regimen: Daily Repeat
Type: toxicity, organism-based, Sprague-Dawley
Design: regimen Daily Repeat, gender Male, age 6 weeks
Conditions: in vivo, po, 20 mg/kg, route gavage, dose level Middle; for APTT / Bas / Eos / Fbg / Hb / Ht / Lym / MCH / MCHC / MCV / Mono / Neu / PT / Plat / RBC / Ret / WBC: tissue Blood; for LIVER: tissue Liver; for A/G / ALP / ALT / AST / BUN / CRE / Ca / Cl / DBIL / GLC / IP / K / LDH / Na / PL / RALB / TBIL / TC / TG / TP / gamma-GTP: tissue Plasma

O=[N+]([O-])c1ccc(O)c([N+](=O)[O-])c1 [2,4-DINITROPHENOL]
TERMINAL_BW (72 h, time 3 day): 243.1 g | APTT (72 h, time 3 day): 15.4 s | Bas (72 h, time 3 day): 0% | Eos (72 h, time 3 day): 1.2% | Fbg (72 h, time 3 day): 283.4 mg/dL | Hb (72 h, time 3 day): 13.6 g/dL | Ht (72 h, time 3 day): 40.4% | Lym (72 h, time 3 day): 77% | MCH (72 h, time 3 day): 22.4 pg | MCHC (72 h, time 3 day): 33.7% | MCV (72 h, time 3 day): 66.4 fL | Mono (72 h, time 3 day): 5% | Neu (72 h, time 3 day): 17% | PT (72 h, time 3 day): 11.4 s | Plat (72 h, time 3 day): 131.6 x10_4/uL | RBC (72 h, time 3 day): 609.2 x10_4/ul | Ret (72 h, time 3 day): 7.3% | WBC (72 h, time 3 day): 124.2 x10_2/uL | LIVER (72 h, time 3 day): 12.1 g | A/G (72 h, time 3 day): 2.4 | ALP (72 h, time 3 day): 1368.6 IU/L | ALT (72 h, time 3 day): 36.6 IU/L | AST (72 h, time 3 day): 61.6 IU/L | BUN (72 h, time 3 day): 15.2 mg/dL | CRE (72 h, time 3 day): 0.4 mg/dL | Ca (72 h, time 3 day): 11.4 mg/dL | Cl (72 h, time 3 day): 104.2 meq/L | DBIL (72 h, time 3 day): 0.01 mg/dL | GLC (72 h, time 3 day): 182.6 mg/dL | IP (72 h, time 3 day): 7.3 mg/dL | K (72 h, time 3 day): 4.8 meq/L | LDH (72 h, time 3 day): 128.4 IU/L | Na (72 h, time 3 day): 138.2 meq/L | PL (72 h, time 3 day): 165.4 mg/dL | RALB (72 h, time 3 day): 3.9 g/dL | TBIL (72 h, time 3 day): 0.022 mg/dL | TC (72 h, time 3 day): 93 mg/dL | TG (72 h, time 3 day): 134.6 mg/dL | TP (72 h, time 3 day): 5.6 g/dL | gamma-GTP (72 h, time 3 day): 0.2 IU/L | TERMINAL_BW ([…], time 7 day): 277.1 g | TERMINAL_BW ([…], time 14 day): 351 g | TERMINAL_BW ([…], time 28 day): 428.8 g | APTT ([…], time 7 day): 16.2 s | Bas ([…], time 7 day): 0% | Eos ([…], time 7 day): 0.8% | Fbg ([…], time 7 day): 259.6 mg/dL | Hb ([…], time 7 day): 13.7 g/dL | Ht ([…], time 7 day): 40.8% | Lym ([…], time 7 day): 71.4% | MCH ([…], time 7 day): 21.3 pg | MCHC ([…], time 7 day): 33.6% | MCV ([…], time 7 day): 63.3 fL | Mono ([…], time 7 day): 9% | Neu ([…], time 7 day): 19% | PT ([…], time 7 day): 11.8 s | Plat ([…], time 7 day): 128 x10_4/uL | RBC ([…], time 7 day): 644.2 x10_4/ul | Ret ([…], time 7 day): 5.5% | WBC ([…], time 7 day): 102 x10_2/uL | APTT ([…], time 14 day): 16.3 s | Bas ([…], time 14 day): 0% | Eos ([…], time 14 day): 0.6% | Fbg ([…], time 14 day): 267 mg/dL | Hb ([…], time 14 day): 13.9 g/dL | Ht ([…], time 14 day): 41.3% | Lym ([…], time 14 day): 77.6% | MCH ([…], time 14 day): 21 pg | MCHC ([…], time 14 day): 33.8% | MCV ([…], time 14 day): 62.2 fL | Mono ([…], time 14 day): 6% | Neu ([…], time 14 day): 15.8% | PT ([…], time 14 day): 11.8 s | Plat ([…], time 14 day): 128 x10_4/uL | RBC ([…], time 14 day): 663.8 x10_4/ul | Ret ([…], time 14 day): 4.4% | WBC ([…], time 14 day): 125.8 x10_2/uL | APTT ([…], time 28 day): 17.1 s | Bas ([…], time 28 day): 0% | Eos ([…], time 28 day): 1% | Fbg ([…], time 28 day): 281.8 mg/dL | Hb ([…], time 28 day): 14.9 g/dL | Ht ([…], time 28 day): 44% | Lym ([…], time 28 day): 82.4% | MCH ([…], time 28 day): 20 pg | MCHC ([…], time 28 day): 33.8% | MCV ([…], time 28 day): 59.1 fL | Mono ([…], time 28 day): 5% | Neu ([…], time 28 day): 11.6% | PT ([…], time 28 day): 12 s | Plat ([…], time 28 day): 122 x10_4/uL | RBC ([…], time 28 day): 744.2 x10_4/ul | Ret ([…], time 28 day): 2.6% | WBC ([…], time 28 day): 118.2 x10_2/uL | LIVER ([…], time 7 day): 13.6 g | LIVER ([…], time 14 day): 17.5 g | LIVER ([…], time 28 day): 19.1 g | A/G ([…], time 7 day): 2.3 | ALP ([…], time 7 day): 1592.8 IU/L | ALT ([…], time 7 day): 33.4 IU/L | AST ([…], time 7 day): 63 IU/L | BUN ([…], time 7 day): 18.4 mg/dL | CRE ([…], time 7 day): 0.4 mg/dL | Ca ([…], time 7 day): 11.4 mg/dL | Cl ([…], time 7 day): 105.4 meq/L | DBIL ([…], time 7 day): 0.012 mg/dL | GLC ([…], time 7 day): 182 mg/dL | IP ([…], time 7 day): 7.2 mg/dL | K ([…], time 7 day): 4.8 meq/L | LDH ([…], time 7 day): 111.6 IU/L | Na ([…], time 7 day): 139.4 meq/L | PL ([…], time 7 day): 149.6 mg/dL | RALB ([…], time 7 day): 3.9 g/dL | TBIL ([…], time 7 day): 0.02 mg/dL | TC ([…], time 7 day): 77.4 mg/dL | TG ([…], time 7 day): 148.2 mg/dL | TP ([…], time 7 day): 5.6 g/dL | gamma-GTP ([…], time 7 day): 0.4 IU/L | A/G ([…], time 14 day): 2.1 | ALP ([…], time 14 day): 983.2 IU/L | ALT ([…], time 14 day): 33.4 IU/L | AST ([…], time 14 day): 64.2 IU/L | BUN ([…], time 14 day): 19 mg/dL | CRE ([…], time 14 day): 0.3 mg/dL | Ca ([…], time 14 day): 11.8 mg/dL | Cl ([…], time 14 day): 104.4 meq/L | DBIL ([…], time 14 day): 0.014 mg/dL | GLC ([…], time 14 day): 180.4 mg/dL | IP ([…], time 14 day): 6.9 mg/dL | K ([…], time 14 day): 4.5 meq/L | LDH ([…], time 14 day): 99.8 IU/L | Na ([…], time 14 day): 137 meq/L | PL ([…], time 14 day): 151.2 mg/dL | RALB ([…], time 14 day): 4 g/dL | TBIL ([…], time 14 day): 0.022 mg/dL | TC ([…], time 14 day): 74.2 mg/dL | TG ([…], time 14 day): 190.4 mg/dL | TP ([…], time 14 day): 6 g/dL | gamma-GTP ([…], time 14 day): 0 IU/L | A/G ([…], time 28 day): 1.9 | ALP ([…], time 28 day): 871.8 IU/L | ALT ([…], time 28 day): 31.8 IU/L | AST ([…], time 28 day): 63.4 IU/L | BUN ([…], time 28 day): 18.2 mg/dL | CRE ([…], time 28 day): 0.5 mg/dL | Ca ([…], time 28 day): 11.2 mg/dL | Cl ([…], time 28 day): 104.6 meq/L | DBIL ([…], time 28 day): 0.012 mg/dL | GLC ([…], time 28 day): 180.8 mg/dL | IP ([…], time 28 day): 6.6 mg/dL | K ([…], time 28 day): 4.3 meq/L | LDH ([…], time 28 day): 117.2 IU/L | Na ([…], time 28 day): 141 meq/L | PL ([…], time 28 day): 133.4 mg/dL | RALB ([…], time 28 day): 4.1 g/dL | TBIL ([…], time 28 day): 0.016 mg/dL | TC ([…], time 28 day): 67.6 mg/dL | TG ([…], time 28 day): 155.6 mg/dL | TP ([…], time 28 day): 6.2 g/dL | gamma-GTP ([…], time 28 day): 0.4 IU/L
